Measurements as given in patent US20220257621A1, “CANCER CELL PROLIFERATION SUPPRESSION AGENT AND COMPOSITION FOR SUPPRESSING PROLIFERATION OF CANCER CELLS” (SHOWA DENKO K.K., priority 2019, published 2022).

Legend:
[1] = tested on: normal human epidermal keratinocytes (NHEK); test: Effect (2) of suppressing ROS production, inositol derivative and Na tocopherol phosphate; type: cell-based; details: Na tocopherol phosphate 10 μM and/or inositol derivative 0.001% by mass 24 h, then atmospheric dust 500 μg/mL 48 h, control without dust = 1, dust + 0.05% ethanol = 2.41
Description: The effect of the inositol derivative and Na tocopherol phosphate on suppressing ROS production in normal human epidermal keratinocytes (NHEK, manufactured by KURABO INDUSTRIES LTD.) was measured under the following conditions. As the following Na tocopherol phosphate, TPNa (registered trademark) (manufactured by Showa Denko K. K.), which is sodium d1-α-tocopheryl phosphate, was used.
The NHEK cells were seeded in a HuMedia KG2 medium manufactured by KURABO INDUSTRIES LTD. at the seeding density of 10000 cells/cm^2, and cultured for 24 hours under the conditions of 37° C. and 5% CO2. Next, Na tocopherol phosphate alone (final concentration of 10 μM in the culture medium), the inositol derivative alone (final concentration of 0.001% by mass in the culture medium), or a combination of Na tocopherol phosphate (final concentration of 10 μM in the culture medium) and the inositol derivative (final concentration of 0.001% by mass in the culture medium) was added to the culture medium. […] Thereafter, the ROS production amount was measured using a ROS assay kit (manufactured by OZ BIOSCIENCES). […] After washing the cells with PBS again, 100 μL of PBS was added, and the fluorescence intensity at an excitation wavelength of 485 nm/an absorption wavelength of 535 nm was measured with a microplate reader i-Control (manufactured by Tecan Group Ltd.). […]

[2] = tested on: cell line derived from Lewis lung carcinoma (LLC); test: Effect (2) of suppressing proliferation of cancer cells, inositol derivative and Na tocopherol phosphate (WST-8); type: cell-based; details: Na tocopherol phosphate 10 μM and/or inositol derivative 0.001% by mass 24 h, then atmospheric dust 500 μg/mL 48 h, control without dust = 1, dust + 0.05% ethanol = 1.69
Description: The effect of the inositol derivative and Na tocopherol phosphate on suppressing the proliferation of cancer cells in a cell line derived from Lewis lung carcinoma (LLC, JCRB Cell Bank) was measured under the following conditions. As the following Na tocopherol phosphate, TPNa (registered trademark) (manufactured by Showa Denko K. K.), which is sodium d1-α-tocopheryl phosphate, was used.
The LLC cells were seeded at the seeding density of 50000 cells/cm^2 in a culture medium in which a Ham F10 medium and an L15 medium (both manufactured by Sigma-Aldrich) were mixed at the ratio of 3:7 (volume ratio), and cultured for 24 hours under the conditions of 37° C. and 5% CO2. Next, Na tocopherol phosphate alone (final concentration of 10 μM in the culture medium), the inositol derivative alone (final concentration of 0.001% by mass in the culture medium), or a combination of Na tocopherol phosphate (final concentration of 10 μM in the culture medium) and the inositol derivative (final concentration of 0.001% by mass in the culture medium) was added to the culture medium. […] Thereafter, the culture medium was replaced with a medium containing 10% (V/V) of WST-8 of Nacalai Tesque Inc., and after further culturing for 3 hours, the absorbance at the wavelength of 450 nm was measured with a microplate reader i-Control (manufactured by Tecan Group Ltd.). […]

For `Cc1c(C)c2c(c(C)c1OP(=O)([O-])[O-])CCC(C)(CCCC(C)CCCC(C)CCCC(C)C)O2.[Na+].[Na+]` (stereo not drawn) [Na tocopherol phosphate, sodium d1-α-tocopheryl phosphate], the “Relative ROS production amount” value [1] was 1.53 and the “Relative cell proliferation amount” value [2] was 1.33.
